Data as given in BindingDB's records for doi:10.1016/j.bmcl.2009.09.123 (Genomics Institute of The Novartis Research Foundation, 2009).

Legend:
[1] = Inhibition of Tel-fused LYN expressed in mouse BAF3 cells
[2] = Inhibition of Tel-fused KDR expressed in mouse BAF3 cells
[3] = Inhibition of Tel-fused SRC expressed in mouse BAF3 cells
[4] = Inhibition of Tel-fused LCK expressed in mouse BAF3 cells

Row | SMILES | IC50 [1] [nM] | IC50 [2] [nM] | IC50 [3] [nM] | IC50 [4] [nM]
1 | Cc1ccc(NC(=O)c2cccc(C(F)(F)F)c2)cc1Nc1nc2ccccc2n1-c1cc(NCCCN2CCN(C)CC2)ncn1 [N-(4-methyl-3-(1-(6-(3-(4-methylpiperazin-1-yl)propylamino)pyrimidin-4-yl)-1H-benzo[d]imidazol-2-ylamino)phenyl)-3-(trifluoromethyl)benzamide] | 149 | 582 | 601 | 25
2 | Cc1ccc(NC(=O)c2cccc(C(F)(F)F)c2)cc1Nc1nc2ccccc2n1-c1cc(NCCCC2COCCN2)ncn1 (configuration not stated) [N-(4-methyl-3-(1-(6-(3-(morpholin-3-yl)propylamino)pyrimidin-4-yl)-1H-benzo[d]imidazol-2-ylamino)phenyl)-3-(trifluoromethyl)benzamide] | 67 | 318 | 600 | 40
3 | Cc1ccc(NC(=O)c2cccc(C(F)(F)F)c2)cc1Nc1nc2ccccc2n1-c1cc(N2CCOCC2)ncn1 [N-(4-methyl-3-(1-(6-morpholinopyrimidin-4-yl)-1H-benzo[d]imidazol-2-ylamino)phenyl)-3-(trifluoromethyl)benzamide] | > 10000 | > 10000 | > 10000 | > 10000
